# Results: article PMC5295395, “Inhibition of PlexA1-mediated brain tumor growth and tumor-associated angiogenesis using a transmembrane domain targeting peptide” (Oncotarget, 2016)
# Experiments:
# PlexA4-PlexA1 complex = assay: co-immunoprecipitation of Plexin-A4 with PlexA1 in U373MG cells; format: cell-based, human; conditions: 10^−7 M peptide 1 h
# Procedure: (§1) (C) Rac-1 activation assay in resting condition and after Sema3A-induced Rac-1 activation in U373 MG cells. (D) Western blot analysis of phosphorylated Akt, total Akt and tubulin in U373MG cells treated with the vehicle (LDS 72 μM), Sema3A (100 ng/ml) or Sema3A + MTP-PlexA1 (10^−7 M). The lower panel is showing the quantification of the p-Akt/Akt ratio in the different conditions. (E) MTP-PlexA1 decreases VEGFR-2 phosphorylation induced by VEGF (100 ng/ml) in HUVEC cells. […]
# (§2) in 20 mM sodium acetate (pH 4.5) at a flow rate of 5 μl/ min 10–7 M of MTP-PlexA1 or Vehicle (LDS, 72 µM) during until desired surface densities, measured in response 1 h. Stimulation was done with 100ng/ml Semaphorin 3A units, were reached. […] First antibodies (Rabbit anti-phospho-the elution buffer containing detergent removed non- akt, Rabbit anti-akt, Cell Signaling #4060 and #9272 biotinylated peptides rendering the chip ready for analysis respectively) and mouse anti-tubulin α (Cell Signaling with monomeric biot-MTP-PlexA1. Blank surfaces were #2144) were incubated overnight at 4°C (+ anti-NRP1, used for background corrections. Injections of 30 µl anti-PlexA4 Abcam). […] Images of the immuno-blots cells per well in a 6-well plate and serum starved overnight. were acquired and analyzed thanks to the GENE GNOME Before protein extraction, the cells were treated either with apparatus (Syngene Bio Imaging, UK).
# p-Akt/Akt = assay: western blot of Akt phosphorylation in U373MG cells; format: cell-based, human; conditions: Sema3A 100 ng/ml + MTP-PlexA1 10^−7 M
# Procedure: as §1, §2
# HUVEC cells = assay: live-monitoring trans-well migration assay, HUVEC (X-Celligence); format: cell-based, human; conditions: p = 0.0002
# Excerpt: We observed PlexA1 positive blood vessels in the tissue array of GBM samples (Figure 5A). […] To address this possibility we first used a transgenic zebra-fish model tg(kdrl:eGFP) highlighting the endothelial cells. This allowed us to assess the angiogenic activities in vivo by analyzing formation of intersegmental vessels (ISVs) after morpholino-based knockdown of the target.
# Figure 5 MTP-PlexA1 inhibits developmental and tumor-specific PlexA1 pro-angiogenic role (A) Microphotographs illustrating the expression of PlexA1 in vascular-like structures in human glioma tissues. (Scale bar: 40 μm). (B) Morpholino-based PlexA1 knockdown in Zebrafish tg(kdrl:eGFP) line. Representative images of control, Plexin-A1 mismatch and Pexin-A1 knockdown embryos (plxna1MO) are shown 28 hours post fertilization (28hpf). […] (E) Live-monitoring of VEGF-induced HUVEC cell migration assay using the XCelligence system (transwell assay). (F) Microphotographs illustrating the expression of PlexA1 in blood vessels of the chick chorioallontoic membrane (upper left picture). Microphotographs (middle and lower left pictures) and camera lucida drawing (middle and lower right pictures) showing representative fields of observation after 24 h incubation with VEGF (100 ng/ml, +vehicle) or VEGF + MTP-PlexA1 (10^−7 M). The number of VEGF-induced new blood vessels is shown in the graph.
# [1] = system: tumor-associated blood vessels (CD31); assay: CD31 immunostaining of U118MG-Luc xenograft tumor sections; format: in vivo, mouse; conditions: vs control; p = 0.0436, Mann Whitney
# Procedure: To address the biological consequences of MTP-PlexA1-mediated inhibition of PlexA1 we used the U118MG-Luc glioma cell line genetically engineered to express the luciferase reporter gene. […] Cells were then grafted subcutaneously and tumor growth was monitored every 5 days for a total period of 20 days. […] The quantitative analysis of the cumulated luminescent signal acquired all along the protocol confirmed the strong reduction of tumor development translating into a marked 75% reduction of the averaged luminescent signal at the end point (Figure 6C). […] In order to clarify the mechanism by which MTP-PlexA1 is exerting tumor growth inhibition we collected tumors and analyzed them histologically.
# (B) Representative photographs illustrating the kinetic of tumor growth over 20 days in the two experimental groups. […] (D) Waterfall plot of best response representing the percent change in tumor volume of individual treated animals (grey bars, n = 10) compared to the average tumor volume increased determined in the control group (dark bars, n = 10). […] (F) Representative microphotographs and related quantification of PH3 positive cells in tumor slices (G) Representative microphotographs and related quantification of CD31 positive regions in tumor slices (% CD31 per μm² of tumors).
# NCH644 cells = assay: MTS proliferation assay, NCH644 glioma stem cells; format: cell-based, human; conditions: NCH644, p < 0.0001
# U373MG cells = assay: U373MG cell proliferation; format: cell-based, human
sequence,measurement,setting,value
"TLPAIVGIGGGGGLLLLVIVAVLIAYKRK [MTP-PlexA1, synthetic transmembrane peptide mimicking the TMD of PlexA1]","change of PlexA4 co-immunoprecipitated with PlexA1, Sema3A-induced",PlexA4-PlexA1 complex; Sema3A 100 ng/ml 30 min,−35.5%
same,"reduction of PlexA4 co-immunoprecipitated with PlexA1, VEGF",PlexA4-PlexA1 complex; VEGF 100 ng/ml 10 min,35.4%
same,effect on Sema3A-induced inhibition of Akt phosphorylation,p-Akt/Akt,blocked
same,change of VEGFA-induced HUVEC cell migration,HUVEC cells,−63%
same,reduction of tumor-associated blood vessel density (CD31),[1],11.4%
same,change of proliferation of glioma stem cells,NCH644 cells,−10%
same,"U373MG cell proliferation, dose dependence",U373MG cells,dose-dependent reduction
same,"change of U373MG cell proliferation, maximal effect","U373MG cells; at 10–7 M, p < 0.0001, Mann Whitney",–25%
